Laboratory results reported in PubChem BioAssay AID1996.
Converted amounts (≈) assume the structure as drawn.

Conditions: buffer; pH 7.4; 200.0 µM

| Compound | solubility kinetic |
| --- | --- |
| O=C(O)CCCN1C(=O)c2cccc3cccc(c23)C1=O | 31.8 µg/mL (≈ 112 µM) |
| CS(=O)(=O)c1ccc(Cl)c(C(=O)NCC2CCCCC2)c1 | > 49.5 µg/mL |
| Cn1c(N)c(C(=O)COC(=O)c2ccccc2C(F)(F)F)c(=O)n(C)c1=O | 6.3 µg/mL (≈ 16.4 µM) |
| N#C/C(=C\c1ccncc1)c1ccccn1 | > 31.1 µg/mL |
| COc1ccc(NC(=S)NCc2ccc(Cl)cc2)c(OC)c1 | 28.3 µg/mL (≈ 84 µM) |
| O=S(=O)(c1cc(F)ccc1F)N1CCN(c2ncccn2)CC1 | 46.9 µg/mL (≈ 138 µM) |
| O=[N+]([O-])c1ccc(N2CCN(c3ccc(F)cc3)CC2)cn1 | 3.5 µg/mL (≈ 11.6 µM) |
| CCCCN(C(=O)C1CCCC1)c1c(N)n(Cc2ccccc2)c(=O)[nH]c1=O | 3.6 µg/mL (≈ 9.36 µM) |
| O=c1c2ccccc2nc2n1CCO2 | > 28.2 µg/mL |
| Cc1ccc(C2N(C)C(=O)c3ccccc3N2C)cc1 (centres undefined) | 31.5 µg/mL (≈ 118 µM) |
| Cc1cccc(NC(=S)N(C)C2CCCCC2)c1 | 30.1 µg/mL (≈ 115 µM) |
| Cc1ccc(C(=O)NC(C)c2ccc(C)c(C)c2)s1 (centres undefined) | 3.5 µg/mL (≈ 12.8 µM) |
| Cl.O=C(CCN1CCOCC1)NNC(=O)c1ccc(Cl)c([N+](=O)[O-])c1 | > 59 µg/mL |
| O=C(COC(=O)CC1CC2CCC1C2)Nc1ccccc1Cl (centres undefined) | 12.9 µg/mL (≈ 40.1 µM) |
| CN(C)CCCN(C(=O)c1ccco1)c1nc2ccc(F)cc2s1.Cl | 55 µg/mL |
| CCc1ccc(NC(=O)COc2ccc3c(c2)OCO3)cc1 | 4.8 µg/mL (≈ 16 µM) |
| COc1ccc(CCN(C)C2CC(=O)N(c3ccccc3)C2=O)cc1OC (centres undefined) | > 55.3 µg/mL |
| C=CCNC(=O)c1cc(-c2ccncc2)nc2c(C)cc(C)cc12 | 2 µg/mL (≈ 6.3 µM) |
| CCc1ccc(/C=C2/SC(N3CCOCC3)=NC2=O)cc1 | 26.5 µg/mL (≈ 87.6 µM) |
| COc1ccc(NC(=O)CSCCc2ccccn2)cc1OC | 48.7 µg/mL (≈ 146 µM) |
| Cc1nc(SCC(=O)NC2CCCCC2C)nc(C)c1C (centres undefined) | > 46.1 µg/mL |
| O=S(=O)(Nc1nccs1)c1ccc(NS(=O)(=O)c2c(F)cc(F)c(Cl)c2F)cc1 | > 72.6 µg/mL |
| c1ccc(CCCN2CCOCC2)cc1 | 19.2 µg/mL (≈ 93.5 µM) |
| CCn1cc(CCCC(=O)NCc2cccnc2)c2ccccc21 | > 48.2 µg/mL |
| O=C(Nc1cc(-c2nc3ncccc3o2)ccc1Cl)c1ccco1 | 4.4 µg/mL (≈ 13 µM) |
| CCCc1nc2c(sc3nc4c(cc32)COC(C)(C)C4)c(=O)o1 | 24.1 µg/mL (≈ 72.9 µM) |
| O=C(COc1ccccc1)NCC(=O)Nc1ccncc1 | > 42.8 µg/mL |
| CCOC(=O)c1sc(=S)n(Cc2ccccc2)c1C | 3.4 µg/mL (≈ 11.6 µM) |

| Compound | solubility kinetic |
| --- | --- |
| CCCN(CC(=O)Nc1ccccc1OC)C(=O)CC1CCCC1 | > 49.9 µg/mL |
| COc1ccccc1C(=O)NC(=O)CSc1cccc[n+]1[O-] | > 47.8 µg/mL |
| Cc1nc(SCC(=O)NCC2CCCO2)[nH]c(=O)c1C (centres undefined) | > 44.6 µg/mL |
| Cn1cccc1C(=O)OCc1ccc(F)cc1 | < 0.5 µg/mL |
| COCC(=O)Nc1cc(C)cn(Cc2ccccc2Cl)c1=O | 41.4 µg/mL (≈ 129 µM) |
| Cc1ccc(Sc2ccc(C(=O)N(C)C)cc2[N+](=O)[O-])cc1 | 35 µg/mL (≈ 111 µM) |
| COc1ccc(NC(=O)Nc2c[nH]c(=O)[nH]c2=O)cc1 | 10 µg/mL (≈ 36.2 µM) |
| Cc1ccccc1N1CC2=C(C1=O)C(c1ccccc1)NC(=O)N2C (centres undefined) | 0.5 µg/mL (≈ 1.5 µM) |
| Nc1ncnc(Nc2c(F)cccc2F)n1 | > 33.5 µg/mL |
| Cc1ccc(C2CC2/C(=N/O)c2ccc(F)cc2)cc1 (centres undefined) | 3.1 µg/mL (≈ 11.5 µM) |
| CC(Sc1ncccn1)C(=O)Nc1ccc2c(c1)OCCO2 (centres undefined) | > 47.6 µg/mL |
| Cc1cccc(C(=O)NCc2ccco2)c1 | > 32.3 µg/mL |
| CC1(C)CC2CC(C)(CN2S(=O)(=O)c2ccccc2[N+](=O)[O-])C1 (centres undefined) | 2.4 µg/mL (≈ 7.09 µM) |
| Cc1c(Cl)cccc1NC(=S)NCCc1ccccn1 | > 45.9 µg/mL |
| O=S(=O)(c1ccccc1)N1CCN(Cc2c(O)ccc3ccccc23)CC1 | 6.6 µg/mL (≈ 17.3 µM) |
| Cc1cc(NC(=O)C(=O)c2c(C)[nH]c3ccccc23)no1 | 28.2 µg/mL (≈ 99.5 µM) |
| Cc1ccc(C)c(NC(=S)N2CCCCC2CO)c1 (centres undefined) | > 41.8 µg/mL |
| CC(=C\c1ccccc1)/C=C1/SC(=S)N(CCC(=O)O)C1=O | 34.7 µg/mL (≈ 104 µM) |
| Cc1csc2c(N3CCC(C(=O)O)CC3)ncnc12 | 36.9 µg/mL (≈ 133 µM) |
| N#Cc1c(Cl)nc2c(c1C#N)CCCC2 | > 32.6 µg/mL |
| COc1ccc2[nH]c(C(=O)Nc3cccc(C)n3)cc2c1 | 1.9 µg/mL (≈ 6.75 µM) |
| COc1ccc(C(=O)O/N=C(/c2cccs2)C(C)(C)C)cc1 | 2.4 µg/mL (≈ 7.56 µM) |
| O=C(c1ccco1)N1CCN(C(=O)c2ccc(-c3ccc([N+](=O)[O-])cc3)o2)CC1 | 44.1 µg/mL (≈ 112 µM) |
| Cc1ccccc1S(=O)(=O)Cc1ccc(C(=O)NC2CC2)o1 | > 47.9 µg/mL |
| O=C1CCC([N+](=O)[O-])C(c2cccc3ccccc23)N1 (centres undefined) | > 40.5 µg/mL |
| O=C(OCCN=C1NS(=O)(=O)c2ccccc21)c1ccccc1F | 5.7 µg/mL (≈ 16.4 µM) |
| Nc1ncnc2nc(SCCC(=O)O)[nH]c12 | > 35.9 µg/mL |

Second part, the compound after the results:

| solubility kinetic | Compound |
| --- | --- |
| > 49.1 µg/mL | Cc1ccc(Br)cc1S(=O)(=O)Nc1cccnc1 |
| > 53.3 µg/mL | CN(C(=O)CN1C(=O)NC2(CCc3ccccc32)C1=O)C1CCCCC1 (centres undefined) |
| > 55 µg/mL | O=S(=O)(/N=C(/c1ccccc1)N1CCOCC1)c1ccc(F)cc1F |
| 39.5 µg/mL (≈ 141 µM) | S=C(NCc1ccc(Cl)cc1)NCc1ccco1 |
| 29.7 µg/mL (≈ 114 µM) | Cc1ccnc(SCc2ccc([N+](=O)[O-])cc2)n1 |
| 47.7 µg/mL (≈ 146 µM) | O=S(=O)(NCc1ccc2c(c1)OCO2)c1ccc(F)c(F)c1 |
| > 41.6 µg/mL | COCC(C)NC(=O)c1cc2cccc([N+](=O)[O-])c2[nH]1 (centres undefined) |
| > 46.7 µg/mL | N#C/C(=C(/O)CN1CCCC1)c1nc(-c2ccccc2)cs1 |
| > 44.4 µg/mL | NC(=O)CN1C(=O)C(=O)N(Cc2ccccc2Cl)C1=O |
| > 48.7 µg/mL | O=C(CNC(=O)N1CC(=O)Nc2ccccc21)Nc1ccccc1 |
| 0.5 µg/mL (≈ 1.58 µM) | COc1cc(C)nc(NC(=S)N(C)C(=O)c2ccccc2)n1 |
| > 40.8 µg/mL | O=C(O)c1cc(-n2cccc2)ccc1N1CCOCC1 |
| > 40.8 µg/mL | NC(=O)c1ccccc1NCC(=O)c1ccc(F)cc1 |
| 0.6 µg/mL (≈ 1.84 µM) | COc1ccc(OC)c2sc(N3CCc4ccccc4C3)nc12 |
| 2.4 µg/mL (≈ 5.35 µM) | O=C(Nc1ccc(Cl)c(S(=O)(=O)N2CCOCC2)c1)c1cc2ccccc2oc1=O |
| 18.9 µg/mL (≈ 68.7 µM) | COc1cccc(COC(=O)Nc2ccccc2F)c1 |
| 3.7 µg/mL (≈ 9.79 µM) | CCC1CCC2(CC1)NC(=O)N(CC(=O)NCc1ccc(Cl)cc1)C2=O (centres undefined) |
| < 0.4 µg/mL | O=C(CNC(c1ccccc1)c1ccccc1)Nc1ccccc1F |
| 34.4 µg/mL (≈ 110 µM) | Cc1ccc(-c2noc(CN(C)C(=O)c3ccoc3C)n2)cc1 |
| 22.8 µg/mL (≈ 87.6 µM) | CC1(C)CC(=O)C=C(Nc2ccc([N+](=O)[O-])cc2)C1 |
| > 61.3 µg/mL | Cc1cc(NS(=O)(=O)c2ccc(NC(=O)/C=C/c3ccccc3)cc2)nc(C)n1 |
| 43.2 µg/mL (≈ 133 µM) | O=C(O)c1ccccc1C(=O)Nc1nc(-c2ccccc2)cs1 |

| solubility kinetic | Compound |
| --- | --- |
| > 26.4 µg/mL | Cc1ccc2[nH]c(O)c(N=O)c2c1 |
| 4.7 µg/mL (≈ 17.3 µM) | Cc1cc(C(=O)NC(C)C2CC2)c(Cl)cc1Cl (centres undefined) |
| < 0.2 µg/mL | CC(C)(C)S(=O)(=O)c1cnc(-c2ccc(Cl)cc2)nc1N |
| > 31.5 µg/mL | C/C(=N\O)C(C)(C)Nc1ccc(F)cc1 |
| > 47.6 µg/mL | CCN1C(=O)CC(N2CCN(c3cccc(OC)c3)CC2)C1=O (centres undefined) |
| 2.3 µg/mL (≈ 6.33 µM) | CCOc1cc(C(=O)NC2CCCCCCC2)cc(OCC)c1OCC |
| 29.4 µg/mL (≈ 141 µM) | Cc1ccc(NC(=S)N(C)C)cc1C |
| 4.7 µg/mL (≈ 17.5 µM) | O=C(Cc1ccccc1F)Nc1ccc2c(c1)CCC2 |
| 3.6 µg/mL (≈ 8.29 µM) | CCN(CC(=O)Nc1ccc2c(c1)OCCO2)C(=O)/C=C/c1cccc(C(F)(F)F)c1 |
| 33.8 µg/mL (≈ 95.9 µM) | COc1cc(CN(C)Cc2cccc3ccccc23)cc([N+](=O)[O-])c1O |
| 14.3 µg/mL (≈ 62.1 µM) | CCc1ccc(NC(=O)c2cc(C)no2)cc1 |
| 15.1 µg/mL (≈ 48.3 µM) | O=C(CSc1cccc[n+]1[O-])Nc1ccc(Cl)cc1F |
| > 40.2 µg/mL | Nc1ccc(-c2nc3cc(N)ccc3n2CCO)cc1 |
| > 46.8 µg/mL | O=C(CO/N=C/c1ccc(OC(F)F)cc1)NC1CCCC1 |
| > 48.2 µg/mL | CCCCCOc1ccccc1C(=O)NCCCCCC(=O)O |
| 36.3 µg/mL (≈ 105 µM) | O=S(=O)(NCCc1cccs1)c1ccc(Br)cc1 |
| 43.1 µg/mL (≈ 126 µM) | CCOc1ccc(NC(=O)NC(=O)N(C(C)C)S(C)(=O)=O)cc1 |
| 7.2 µg/mL (≈ 29.5 µM) | O=C(Nc1ccc([N+](=O)[O-])cn1)c1cccnc1 |
| > 50.5 µg/mL | Cc1cc(NC(=O)CN(C)CC(=O)Nc2ccc(Cl)cc2)no1 |
| 6.9 µg/mL (≈ 27 µM) | Cc1ccc(C(=O)O/N=C(\N)c2ccccn2)cc1 |
| 24.1 µg/mL (≈ 107 µM) | Cc1cccc(NC(=O)c2cccnc2)c1C |
| 1 µg/mL (≈ 2.31 µM) | COc1ccccc1N1CN(S(=O)(=O)c2ccc(C)cc2)c2nc3ccccc3nc21 |

| solubility kinetic | Compound |
| --- | --- |
| 2.2 µg/mL (≈ 6.31 µM) | Cc1ccc2cc(CCNC(=O)CCCc3ccccc3)c(=O)[nH]c2c1 |
| 32.7 µg/mL (≈ 140 µM) | COc1cccc(C2CCCCN(C)C2=O)c1 (centres undefined) |
| > 51.4 µg/mL | COc1ccccc1CC(=O)NCC(c1ccco1)N1CCCCC1 (centres undefined) |
| 53.9 µg/mL (≈ 137 µM) | O=C(O)CCCCCNC(=O)c1ccc(C(=O)NCCCCCC(=O)O)cc1 |
| 1 µg/mL (≈ 3.21 µM) | Cc1nc(SC(C(N)=O)c2ccccc2)c(C#N)c(C)c1C (centres undefined) |
| 23.2 µg/mL (≈ 77 µM) | COc1ccc(CNC(=O)c2csc3c2CCCC3)cc1 |
| 6.9 µg/mL (≈ 25.8 µM) | Nc1cc(=O)[nH]c(SCc2ccccc2Cl)n1 |
| > 50.9 µg/mL | NS(=O)(=O)c1ccc(CCNC(=O)CN2CCCCCC2)cc1 |
| 37 µg/mL (≈ 120 µM) | COc1nc(OC)nc(N2CCC(C(=O)NC3CC3)CC2)n1 |
| < 0.7 µg/mL | CC(C)c1ccc(OCC(=O)Nc2ccc3oc(=O)ccc3c2)cc1 |
| > 36.8 µg/mL | Cc1ccsc1C(=O)NC(C)c1ccccc1 (centres undefined) |
| 29.3 µg/mL (≈ 85.6 µM) | CCC(C(=O)OC)n1cnc2scc(-c3ccc(C)cc3)c2c1=O (centres undefined) |
| 0.5 µg/mL (≈ 1.74 µM) | Cc1cc2cc(C#N)c(N3CCOCC3)nc2cc1Cl |
| 7.7 µg/mL (≈ 22.8 µM) | CC(=O)N1CCN(c2ccc(NC(=O)c3cccc(C)c3)cc2)CC1 |
| > 38 µg/mL | O=c1cc([O-])n(Cc2ccc(F)cc2)c(=O)[nH]1.[NH4+] |
| 30 µg/mL (≈ 92.5 µM) | NS(=O)(=O)c1ccc(NC(=O)COC(=O)c2ccco2)cc1 |
| > 47.9 µg/mL | CC(=O)NC1(C(F)(F)F)NC(=O)N(c2ccc(F)cc2)C1=O (centres undefined) |
| > 49.2 µg/mL | CCOC(=O)c1cc(C#N)c(N2CCNCC2)nc1C(F)(F)F |
| > 39.6 µg/mL | Cc1ccc(Nc2nc(N)nc(CCl)n2)c(C)c1 |
| 3.1 µg/mL (≈ 6.33 µM) | COc1ccccc1OCC(=O)Nc1cc(S(=O)(=O)N2CCOCC2)ccc1N1CCCCC1 |
